Test results: paper PMC11546339, “Conformational Plasticity Enhances the Brain Penetration of a Metabolically Stable, Dual-Functional Opioid-Peptide CycloAnt” (International Journal of Molecular Sciences, 2024)
Where a SMILES comes first, the peptide text is derived from it. Bridges are numbered along the chain shown (N, C = ends). [ ]: non-standard residue; d: D form. 2Abz = Nc1ccccc1C(=O)O; Dap = NC[C@H](N)C(=O)O

Assays:
[1] = Stability in mouse serum; assay type: in vitro ADME; conditions: 37 °C, read-out: percentage of CycloAnt remaining in mouse serum
Experimental: Proteolytic instability is a major hurdle limiting the development of peptide drug. As blood is a major source of proteases that degrade peptides, we evaluated the stability of CycloAnt in mouse serum. CycloAnt at a final concentration of 20 µM was incubated with mouse serum (SigmaAldrich) at 37 °C for 8 h. At 0, 15, 30, 60, 120, 240, and 480 min, the incubation was terminated by adding 2 volumes of ice-cold acetonitrile to precipitate the proteins in the sample. After centrifugation at 10,000 rpm, supernatant was collected. The processed sample was analyzed by liquid chromatography tandem mass spectrometry (LC-MS/MS). The percentage of CycloAnt remaining at each time point was calculated (Figure 1).
Stability in mouse serum. CycloAnt was dissolved in pH 7.2 phosphate buffer saline (PBS). A total of 175 µL of CycloAnt at a final concentration of 20 µM was mixed with 2.625 mL of 100% mouse serum (SigmaAldrich) and incubated at 37 °C. The mixture was analyzed over a time course of 8 h. At the time points of 0, 15, 30, 60, 120, 240, and 480 min, 150 µL of sample were withdrawal and the reaction was terminated with 300 μL of ice-cold acetonitrile containing internal standard (IS, Tyr-[D-Lys-Phe-Tyr-Gly] at 200 ng/mL). The mixture was centrifuged at 10,000 rpm at 4 °C for 10 min. […] The percentage of peptide remaining at each time point was calculated relative to 0 min. […]

[2] = Metabolism by CYP450 in mouse liver microsomes (NADPH); assay type: in vitro ADME; conditions: 3.07 μM, 0.5 mg/mL microsomes, 1 mM NADPH, 37 °C, 120 min
Experimental: The metabolic stability of CycloAnt was then evaluated in mouse liver microsomes. CycloAnt at a final concentration of 3.07 μM was mixed with 0.5 mg/mL liver microsomes in the presence of 1 mM of NADPH and incubated at 37 °C for 2 h. At 0, 5, 15, 30, 60, and 120 min, incubation mixtures were withdrawn and processed. The supernatant was analyzed by LC-MS/MS. The percentage of CycloAnt remaining at each time point was calculated (Figure 3a).
Metabolism by CYP450 in liver microsomes. CycloAnt dissolved in pH 7.2 PBS was diluted to 8 μM. Six hundred microliters of CycloAnt were incubated with 800 μL of 0.975 mg/mL mouse liver microsomes and 160 μL of 10 mM NADPH at 37 °C for 0, 5, 15, 30, 60, and 120 min. The final concentrations of CycloAnt, mouse liver microsomes, and NADPH in the incubation mixture were 3.07 μM, 0.5 mg/mL, and 1 mM, respectively. At the designated time points, 100 μL of the incubation mixture were withdrawn and mixed with 200 μL ice-cold acetonitrile containing internal standard (IS, Tyr-[D-Lys-Phe-Tyr-Gly]), followed by centrifugation at 10,000× g at 4 °C for 10 min. An aliquot of 250 μL of supernatant was collected and dried in vacuum. The dried sample was reconstituted in 100 μL of 20% acetonitrile and stored at −20 °C before analyzed by LC-MS/MS on the next day. The experiment was performed in duplicate.

C[C@@H](O)[C@@H]1NC(=O)[C@H](CNC(=O)c2ccccc2N)NC(=O)[C@H](NC(=O)[C@@H](N)Cc2ccc(O)cc2)CCCCNC(=O)CNC1=O [CycloAnt] (H-Y[dK][Dap](2Abz)TG; lactam 2-C)
remaining at 8 h, 20 µM [1]: 82.3% | stability in mouse liver microsomes with NADPH (CYP450) [2]: no significant concentration change
